# According to US20240228506A1, “RIPK1 INHIBITORS AND METHODS OF USE” (Merck Sharp & Dohme LLC, priority 2021, published 2024):
# Target: T1, GST-RIPK1 (recombinant GST-RIPK1 kinase domain (residues 1-327)) (Homo sapiens, UniProt Q13546)
# T1 construct: recombinant GST-RIPK1 kinase domain (residues 1-327) enzyme; made in house; host or cells: baculovirus-transfected Sf21 insect cells
# T1 sequence (Q13546 1-327): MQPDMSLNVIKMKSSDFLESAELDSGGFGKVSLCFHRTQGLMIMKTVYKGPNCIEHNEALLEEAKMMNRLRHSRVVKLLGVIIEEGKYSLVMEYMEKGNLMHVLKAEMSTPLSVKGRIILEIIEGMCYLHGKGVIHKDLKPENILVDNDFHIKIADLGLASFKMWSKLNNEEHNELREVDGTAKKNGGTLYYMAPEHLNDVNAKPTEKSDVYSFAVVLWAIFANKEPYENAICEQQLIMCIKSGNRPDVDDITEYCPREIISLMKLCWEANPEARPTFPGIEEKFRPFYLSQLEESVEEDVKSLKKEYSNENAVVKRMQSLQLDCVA
# Assay: RIPK1-ADP-Glo enzymatic assay
# Type: biochemical
# Settings: 25 nM GST-RIPK1, 300 μM ATP, 3 μM dephosphorylated-MBP; 30 minutes pre-incubation, 150 minutes reaction; ten-point titration
# Procedure, shortened: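 Ten-point 1:3 titrations from 100000 nM, 1% DMSO, were preincubated 30 min with 25 nM GST-RIPK1 (1-327) before starting with 300 μM ATP plus 3 μM dephosphorylated MBP; 150 min reaction. ADP-Glo luminescence measured ATP-to-ADP conversion; EC50 by four-parameter sigmoidal regression.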
row,IC50 [nM],Structure (SMILES)
1,12,"O=C(N1C[C@@H]2C[C@H]1c1cncc(C#Cc3cccnc3)c1O2)C12CCC(C(F)(F)F)(CC1)C2 [Compound 2-58, ((2S,5S)-9-(pyridin-3-ylethynyl)-2,3-dihydro-2,5-methanopyrido[3,4-f][1,4]oxazepin-4(5H)-yl)(4-(trifluoromethyl)bicyclo [2.2.1]heptan-1-yl)methanone]"
2,22,"O=C(N1C[C@@H]2C[C@H]1c1cncc(C#Cc3ccc(F)cc3F)c1O2)C12CCC(C(F)(F)F)(CC1)C2 [Compound 2-59, ((2S,5S)-9-((2,4-difluorophenyl)ethynyl)-2,3-dihydro-2,5-methanopyrido[3,4-f][1,4]oxazepin-4(5H)-yl)(4-(trifluoromethyl)bicyclo[2.2.1]heptan-1-yl)methanone]"
3,73,"O=C(N1C[C@@H]2C[C@H]1c1cncc(C#Cc3ccccn3)c1O2)C12CCC(C(F)(F)F)(CC1)C2 [Compound 2-60, ((2S,5S)-9-(pyridin-2-ylethynyl)-2,3-dihydro-2,5-methanopyrido[3,4-f][1,4]oxazepin-4(5H)-yl)(4-(trifluoromethyl)bicyclo [2.2.1]heptan-1-yl)methanone]"
4,22,"O=C(N1C[C@@H]2C[C@H]1c1cncc(C#Cc3cnccn3)c1O2)C12CCC(C(F)(F)F)(CC1)C2 [Compound 2-61, ((2S,5S)-9-(pyrazin-2-ylethynyl)-2,3-dihydro-2,5-methanopyrido[3,4-f][1,4]oxazepin-4(5H)-yl)(4-(trifluoromethyl)bicyclo [2.2.1]heptan-1-yl)methanone]"
5,17,Cc1ccc(C#Cc2cncc3c2O[C@H]2C[C@@H]3N(C(=O)C34CCC(C(F)(F)F)(CC3)C4)C2)cn1 [Compound 2-62]
6,14,"Cc1ccncc1C#Cc1cncc2c1O[C@H]1C[C@@H]2N(C(=O)C23CCC(C(F)(F)F)(CC2)C3)C1 [Compound 2-63, ((2S,5S)-9-((4-methylpyridin-3-yl)ethynyl)-2,3-dihydro-2,5-methanopyrido[3,4-f][1,4]oxazepin-4(5H)-yl)(4-(trifluoromethyl)bicyclo [2.2.1]heptan-1-yl)methanone]"
7,16,"O=C(N1C[C@@H]2C[C@H]1c1cncc(C#Cc3ccccc3)c1O2)C12CCC(C(F)(F)F)(CC1)C2 [Compound 2-64, ((2S,5S)-9-(phenylethynyl)-2,3-dihydro-2,5-methanopyrido[3,4-f][1,4]oxazepin-4(5H)-yl)(4-(trifluoromethyl)bicyclo [2.2.1]heptan-1-yl)methanone]"
8,18,"COc1ccc(C#Cc2cncc3c2O[C@H]2C[C@@H]3N(C(=O)C34CCC(C(F)(F)F)(CC3)C4)C2)cc1 [Compound 2-65, ((2S,5S)-9-((4-methoxyphenyl)ethynyl)-2,3-dihydro-2,5-methanopyrido[3,4-f][1,4]oxazepin-4(5H)-yl)(4-(trifluoromethyl)bicyclo [2.2.1]heptan-1-yl)methanone]"
9,18,"COc1cccc(C#Cc2cncc3c2O[C@H]2C[C@@H]3N(C(=O)C34CCC(C(F)(F)F)(CC3)C4)C2)c1 [Compound 2-66, ((2S,5S)-9-((3-methoxyphenyl)ethynyl)-2,3-dihydro-2,5-methanopyrido[3,4-f][1,4]oxazepin-4(5H)-yl)(4-(trifluoromethyl)bicyclo [2.2.1]heptan-1-yl)methanone]"
10,32,"O=C(N1C[C@@H]2C[C@H]1c1cncc(C#Cc3ccncn3)c1O2)C12CCC(C(F)(F)F)(CC1)C2 [Compound 2-67, ((2S,5S)-9-(pyrimidin-4-ylethynyl)-2,3-dihydro-2,5-methanopyrido[3,4-f][1,4]oxazepin-4(5H)-yl)(4-(trifluoromethyl)bicyclo [2.2.1]heptan-1-yl)methanone]"
11,134,"O=C(N1C[C@@H]2C[C@H]1c1cncc(C#Cc3ncccn3)c1O2)C12CCC(C(F)(F)F)(CC1)C2 [Compound 2-68, ((2S,5S)-9-(pyrimidin-2-ylethynyl)-2,3-dihydro-2,5-methanopyrido[3,4-f][1,4]oxazepin-4(5H)-yl)(4-(trifluoromethyl)bicyclo [2.2.1]heptan-1-yl)methanone]"

# Second part, the molecule before the results:
row,Structure (SMILES),IC50 [nM]
1,"O=C(N1C[C@@H]2C[C@H]1c1cncc(C#Cc3cncnc3)c1O2)C12CCC(C(F)(F)F)(CC1)C2 [Compound 2-50, ((2S,5S)-9-(Pyrimidin-5-ylethynyl)-2,3-dihydro-2,5-methanopyrido[3,4-f][1,4]oxazepin-4(5H)-yl)(4-(trifluoromethyl)bicyclo[2.2.1]heptan-1-yl)methanone]",15
2,"O=C(N1C[C@@H]2C[C@H]1c1cncc(C#Cc3cccnn3)c1O2)C12CCC(C(F)(F)F)(CC1)C2 [Compound 2-51, ((2S,5S)-9-(pyridazin-3-ylethynyl)-2,3-dihydro-2,5-methanopyrido[3,4-f][1,4]oxazepin-4(5H)-yl)(4-(trifluoromethyl)bicyclo [2.2.1]heptan-1-yl)methanone]",17
3,"O=C(N1C[C@@H]2C[C@H]1c1cncc(C#Cc3ccncc3)c1O2)C12CCC(C(F)(F)F)(CC1)C2 [Compound 2-52, ((2S,5S)-9-(pyridin-4-ylethynyl)-2,3-dihydro-2,5-methanopyrido[3,4-f][1,4]oxazepin-4(5H)-yl)(4-(trifluoromethyl)bicyclo [2.2.1]heptan-1-yl)methanone]",30
4,"O=C(N1C[C@@H]2C[C@H]1c1cncc(C#Cc3cnc4ccoc4c3)c1O2)C12CCC(C(F)(F)F)(CC1)C2 [Compound 2-53, ((2S,5S)-9-(furo[3,2-b]pyridin-6-ylethynyl)-2,3-dihydro-2,5-methanopyrido[3,4-f][1,4]oxazepin-4(5H)-yl)(4-(trifluoromethyl)bicyclo [2.2.1]heptan-1-yl)methanone]",17
5,"O=C(N1C[C@@H]2C[C@H]1c1cncc(C#Cc3cscn3)c1O2)C12CCC(C(F)(F)F)(CC1)C2 [Compound 2-54, ((2S,5S)-9-(thiazol-4-ylethynyl)-2,3-dihydro-2,5-methanopyrido[3,4-f][1,4]oxazepin-4(5H)-yl)(4-(trifluoromethyl)bicyclo [2.2.1]heptan-1-yl)methanone]",18
6,"Cn1cncc1C#Cc1cncc2c1O[C@H]1C[C@@H]2N(C(=O)C23CCC(C(F)(F)F)(CC2)C3)C1 [Compound 2-55, ((2S,5S)-9-((1-methyl-1H-imidazol-5-yl)ethynyl)-2,3-dihydro-2,5-methanopyrido[3,4-f][1,4]oxazepin-4(5H)-yl)(4-(trifluoromethyl)bicyclo [2.2.1]heptan-1-yl)methanone]",26
7,"O=C(N1C[C@@H]2C[C@H]1c1cncc(C#CCn3ccnc3)c1O2)C12CCC(C(F)(F)F)(CC1)C2 [Compound 2-56, ((2S,5S)-9-(3-(1H-imidazol-1-yl)prop-1-yn-1-yl)-2,3-dihydro-2,5-methanopyrido[3,4-f][1,4]oxazepin-4(5H)-yl)(4-(trifluoromethyl)bicyclo [2.2.1]heptan-1-yl)methanone]",23
8,"O=C(N1C[C@@H]2C[C@H]1c1cncc(C#CCO)c1O2)C12CCC(C(F)(F)F)(CC1)C2 [Compound 2-57, ((2S,5S)-9-(3-hydroxyprop-1-yn-1-yl)-2,3-dihydro-2,5-methanopyrido[3,4-f][1,4]oxazepin-4(5H)-yl)(4-(trifluoromethyl)bicyclo[2.2.1]heptan-1-yl)methanone]",78
